Earlier results, collected in patent publication EP4692316A1, “MICROCARRIER FOR CELL CULTURE, METHOD FOR PREPARING MICROCARRIER FOR CELL CULTURE, AND CELL CULTURE COMPOSITION USING SAME” (LG Chem, Ltd., priority 2024, dated 2025).

Details: monomer or oil as supplied

Compound	density
C=Cc1ccc(C)cc1 [methylstyrene]	0.89 to 0.92 g/mL
C=Cc1ccc(C(C)(C)C)cc1 [4-tert-butyl styrene]	0.875 g/mL
C=Cc1ccc(C)cc1C [2,4-Dimethylstyrene]	0.906 g/mL
C=Cc1c(C)cc(C)cc1C [trimethylstyrene]	0.906 g/mL
